# From patent publication US20070207946A1, “Dipeptidyl peptidase IV inhibitors and their uses for lowering blood pressure levels” (priority 2001, published 2007)
# Where a name gives a salt, the structure may show the parent alone. Read-outs that look alike come from different tables or passages of the source.
# How the values were obtained:
# [1] = In vivo inactivation of glutaminyl thiazolidine after oral administration to Wistar rats; details: plasma LC/MS
# Description: Glutaminyl thiazolidine was administered to Wistar rats orally as described in example 9.
# After application of placebo or glutaminyl thiazolidine, arterial blood samples were taken at 2.5, 5, 7.5, 10, 15, 20, 40, 60 and 120 min from the carotid catheter of the conscious unrestrained rats to determine the formation of degradation products of glutaminyl thiazolidine.
# For analysis, simple solid phase extraction procedure on C18 cartridges was used to isolate the compounds of interest from the plasma. The extracts were analysed using reversed-phase liquid chromatography on Lichrospher 60 RP Select B column hyphenated with tandem mass spectrometry operating in the APCI positive mode. An internal standard method was used for quantification.
# plasma DPIV activity = target: T1, plasma DPIV activity (Rattus norvegicus, UniProt P14740); assay: DPIV inhibiting activity after intravasal and oral administration to Wistar rats; type: in vivo; details: rat
# T1 construct: from tissue; host or cells: plasma of Wistar rats
# Description: Male Wistar rats (Shoe: Wist(Sho)) with a body weight ranging between 250 and 350 g were purchased from Tierzucht Schönwalde (Schönwalde, Germany).
# Animals were single-caged under conventional conditions with controlled temperature (22±2° C.) on a 12/12 hours light/dark cycle (light on at 06:00 AM). Standard pelleted chow (ssniff® Soest, Germany) and tap water acidified with HCl were allowed ad libitum.
# After ≧one week of adaptation at the housing conditions, catheters were implanted into the carotid artery of Wistar rats under general anaesthesia (i.p. injection of 0.25 ml/kg b.w. Rompun® [2%], BayerVital, Germany and 0.5 ml/kg b.w. Ketamin 10, Atarost GmbH & Co., Twistringen, Germany). The animals were allowed to recover for one week. The catheters were flushed with heparin-saline (100 IU/ml) three times per week. In case of catheter dysfunction, a second catheter was inserted into the contra-lateral carotid artery of the respective rat. After one week of recovery from surgery, this animal was reintegrated into the study. In case of dysfunction of the second catheter, the animal was withdrawn from the study. A new animal was recruited and the experiments were continued in the planned sequence, beginning at least 7 days after catheter implantation.
# After overnight fasting, 100 μl samples of heparinised arterial blood were collected at −30, −5, and 0 min. […] In the case of oral administration, an additional volume of 1 ml saline was injected into the arterial catheter. In the case of infra-arterial administration, the catheter was immediately flushed with 30 μl saline and an additional 1 ml of saline was given orally via the feeding tube.
# All blood samples were collected into ice cooled Eppendorf tubes (Eppendorf-Netheler-Hinz, Hamburg, Germany) filled with 10 μl 1M sodium citrate buffer (pH 3.0) for plasma DPIV activity measurement. Eppendorf tubes were centrifuged immediately (12000 rpm for 2 min, Hettich Zentrifuge EBA 12, Tuttlingen; Germany): The plasma fractions were stored on ice until analysis or were frozen at −20° C. until analysis. All plasma samples were labelled with the following data:
# The assay mixture for determination of plasma DPIV activity consisted of 80 μl reagent and 20 μl plasma sample. […] The DPIV activity was expressed in mU/ml.
# All parameters were analysed in a descriptive manner including mean and SD.
# [2] = target: T2, Prolidase from porcine kidney (Sus scrofa, UniProt A0A5G2QQV1); assay: Cross reacting enzymes - prolidase; type: biochemical; details: substrate Ile-Pro-OH, pH 7.6, read-out: IC50 against prolidase
# T2 construct: Prolidase from porcine kidney (ICN Biomedicals, Eschwege, Germany); purchased ICN Biomedicals, Eschwege, Germany; host or cells: porcine kidney
# T2 sequence (A0A5G2QQV1 1-463): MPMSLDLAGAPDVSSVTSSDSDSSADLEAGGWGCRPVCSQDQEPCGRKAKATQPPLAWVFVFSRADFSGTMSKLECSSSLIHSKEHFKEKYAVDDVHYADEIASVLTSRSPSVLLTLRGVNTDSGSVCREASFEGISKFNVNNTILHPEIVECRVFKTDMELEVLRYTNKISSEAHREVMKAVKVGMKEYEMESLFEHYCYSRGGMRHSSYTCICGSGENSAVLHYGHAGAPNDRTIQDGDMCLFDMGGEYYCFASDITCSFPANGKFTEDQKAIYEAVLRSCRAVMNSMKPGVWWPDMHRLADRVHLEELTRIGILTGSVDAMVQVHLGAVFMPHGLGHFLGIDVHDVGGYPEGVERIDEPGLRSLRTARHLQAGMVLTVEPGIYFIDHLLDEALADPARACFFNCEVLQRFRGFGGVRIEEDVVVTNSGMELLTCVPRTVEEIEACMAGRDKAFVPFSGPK
# Description: Prolidase (EC 3.4.13.9) was first described by Bergmann & Fruton (Bergmann, M. & Fruton, J S, 1937, J. Biol. Chem. 189-202). Prolidase releases the N-terminal amino acid from Xaa-Pro dipeptides and has a pH optimum between 6 and 9.
# Prolidase from porcine kidney (ICN Biomedicals, Eschwege, Germany) was solved (1 mg/ml) in assay buffer (20 mM NH4(CH3COO)2, 3 mM MnCl2, pH 7.6). In order to get a fully active enzyme the solution was incubated for 60 min at room temperature.
# 450 μl glutaminyl pyrrolidine or glutaminyl thiazolidine in an concentration range of 5*10^−3 M-5*10^−7 M were admixed with 500 μl buffer solution (20 mM NH4(CH3COO)2, pH 7.6) and 250 μl Ile-Pro-OH (0.5 mM in the assay, mixture). The assay mixture was pre-incubated at 30° C. for 5 min. After pre-incubation, 75 μl Prolidase (1:10 diluted in assay buffer) were added and measurement was performed at 30° C. and λ=220 nm for 20 min using a UV/Vis photometer, UV1 (Thermo Spectronic, Cambridge, UK).
# The IC 50-values were calculated using Graphit 4.0.15 (Erithacus Software, Ltd., UK).
# [3] = system: fatty (fa/fa) VDF Zucker rats; assay: Chronic oral treatment of fatty Zucker rats - fasting blood glucose; type: in vivo, rat; details: 10 mg/kg oral gavage twice daily, 12 weeks
# Description: (§1) Animals were housed singly, on a 12 hour light/dark cycle (lights on at 6 am) and allowed access to standard rat food, and water ad libitum.
# Every two days, body weight, morning and evening blood glucose, and food and water intake were assessed. Blood samples for glucose determination were acquired from tail bleeds, and measured using a SureStep glucose analyzer (Lifescan Canada Ltd., Burnaby).
# (§2) Every four weeks from the start of the experiment, an oral glucose tolerance test (OGTT) was performed: animals were fasted for 18 hours following the 1700 h dosing and administered 1 g/kg glucose orally.
# Circulating half-life = type: in vivo; details: 18 hours following dosing
# Description: as §2
# F344 rats = assay: Chronic intragastric infusion via osmotic minipumps over two weeks - blood pressure; type: in vivo, rat
# Description: Reduced expression of the ectopeptidase DPIV and lack of DPIV-like activity in mutant F344 rats lacking DPIV enzymic activity and expression results in a lowered blood pressure. Mutant F344 substrains lacking DPIV enzymic activity and wild-type-like F344 were tested.
# [4] = system: fatty (fa/fa) VDF Zucker rats; assay: Chronic oral treatment of fatty Zucker rats - systolic blood pressure (tail-cuff); type: in vivo, rat; details: 10 mg/kg oral gavage twice daily
# Description: as §1
# Systolic blood pressure was measured weekly using the tail-cuff procedure.
# PepT1 [5] = target: T3, PepT1 (Oryctolagus cuniculus, UniProt P36836); assay: Inhibition of binding of 3H-D-Phe-Ala to PepT1-expressing P. pastoris cells; details: read-out: EC50: concentration inhibiting the binding of 3H-D-Phe-Ala to PepT1-expressing P. pastoris cells by 50%
# T3 sequence (P36836 1-707): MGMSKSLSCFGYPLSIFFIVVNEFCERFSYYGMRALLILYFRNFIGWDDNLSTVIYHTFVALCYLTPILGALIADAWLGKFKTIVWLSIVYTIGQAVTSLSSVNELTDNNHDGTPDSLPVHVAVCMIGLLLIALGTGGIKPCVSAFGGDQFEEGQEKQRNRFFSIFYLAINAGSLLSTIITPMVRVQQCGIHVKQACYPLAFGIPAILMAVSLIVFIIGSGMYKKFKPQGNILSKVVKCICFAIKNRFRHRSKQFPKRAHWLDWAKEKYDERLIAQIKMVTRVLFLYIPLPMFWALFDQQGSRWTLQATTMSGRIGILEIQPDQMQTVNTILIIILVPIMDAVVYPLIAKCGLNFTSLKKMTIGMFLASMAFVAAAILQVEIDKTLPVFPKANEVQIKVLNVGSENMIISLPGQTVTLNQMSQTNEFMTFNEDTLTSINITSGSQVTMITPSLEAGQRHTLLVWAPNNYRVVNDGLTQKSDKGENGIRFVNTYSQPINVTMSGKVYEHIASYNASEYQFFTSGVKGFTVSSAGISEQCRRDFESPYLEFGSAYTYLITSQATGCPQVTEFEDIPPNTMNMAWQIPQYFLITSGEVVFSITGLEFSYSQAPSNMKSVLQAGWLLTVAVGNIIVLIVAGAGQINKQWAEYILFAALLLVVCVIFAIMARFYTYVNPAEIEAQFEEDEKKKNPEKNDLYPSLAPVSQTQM
# Source text: (§3) Side chain-modified glutamyl thiazolidines having a structure H-Glu(X)-Thia were synthesised, with polyethylene glycol or glycine oligomers of various chain lengths being used as X (see Method A of example for description of synthesis). The binding characteristics of those derivatives and their transportability by the peptide transporter PepT1 were investigated.
# Wistar-rats = assay: Insulin and blood glucose responses to glucose after i.v. administration of inhibitor; type: in vivo, rat
# Description: The test group additionally obtained an infusion of the inhibitor of 0.75 M/min over 30 min experimental time (*). The control group received during the same time interval an infusion of inhibitor-free 0.9% saline solution. At starting time t=0 all animals were administered an i.d. glucose dose of 1 g/kg 40% dextrose solution (w/v). Blood samples were collected of all test animals in 10 min time intervals. Glucose was analyzed using whole blood (Lifescan One Touch II analyzer) while DPIV-activity and insulin concentration were analyzed in plasma. […] All data are presented as mean+/−s.e.m.
# PepT1 [6] = target: T3, PepT1; assay: Transport characteristics at PepT1-expressing oocytes of X. leavis, two-electrode voltage clamp; type: cell-based
# Source text: as §3
# [7] = system: DPIV and DPIV-like enzymatic activity; assay: Inhibition of the DPIV-catalyzed hydrolysis of the incretins GIP1-42 and GLP-17-36 in vitro (pooled human serum, MALDI-TOF); type: biochemical; details: 20 mM inhibitor; 30 mM peptide; 20% pooled serum; pH 7.6; 30° C.; 24 hours
# Source text: It is possible to suppress the in vitro hydrolysis of incretins caused by DPIV and DPIV-like enzymatic activity using purified enzyme or pooled human serum (FIG. 1).
# Samples were cocrystallized using 2′,6′-dihydroxy-acetophenon as matrix and analyzed by MALDI-TOF-mass spectrometry. Spectra (FIG. 1) display accumulations of 250 single laser shots per sample.
# In the control assays containing no inhibitor the incretins were almost completely degraded (FIGS. 1b and 1c, both bottom spectra).
# T1 sequence (P14740 38-767 limits assumed): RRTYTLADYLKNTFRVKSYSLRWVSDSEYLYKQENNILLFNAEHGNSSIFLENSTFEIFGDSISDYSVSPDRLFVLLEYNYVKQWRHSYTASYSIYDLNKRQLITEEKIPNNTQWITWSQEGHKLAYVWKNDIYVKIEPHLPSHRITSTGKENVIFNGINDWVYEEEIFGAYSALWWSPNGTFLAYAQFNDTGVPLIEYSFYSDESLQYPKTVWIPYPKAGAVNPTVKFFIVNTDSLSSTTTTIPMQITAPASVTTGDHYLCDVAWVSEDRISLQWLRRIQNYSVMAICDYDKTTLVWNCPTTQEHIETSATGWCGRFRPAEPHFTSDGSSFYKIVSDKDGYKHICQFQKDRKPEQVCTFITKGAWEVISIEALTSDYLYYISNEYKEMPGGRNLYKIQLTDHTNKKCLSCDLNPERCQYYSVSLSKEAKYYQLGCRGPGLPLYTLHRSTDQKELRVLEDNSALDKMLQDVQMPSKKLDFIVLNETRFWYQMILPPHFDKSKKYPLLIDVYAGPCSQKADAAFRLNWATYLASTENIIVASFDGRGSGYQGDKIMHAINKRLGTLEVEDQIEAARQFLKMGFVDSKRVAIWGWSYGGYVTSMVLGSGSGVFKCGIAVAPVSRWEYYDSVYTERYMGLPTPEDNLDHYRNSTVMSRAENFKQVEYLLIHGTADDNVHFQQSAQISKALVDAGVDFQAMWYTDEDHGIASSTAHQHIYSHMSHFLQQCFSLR
structure (smiles),measurement,setting,value
"NC(=O)CCC(N)C(=O)N1CCSC1 (centres unmarked) [Gln-Thia, glutaminyl thiazolidine]",degradation of the compound in vivo,[1],degradation of the compound was found
same,degradation product,[1],pyroglutaminyl thiazolidine
same,inhibition at 100 mg/kg,"plasma DPIV activity; iv, intra-vasal (intra-arterial) route, read-out: in vivo DPIV-inhibition at tmax, i.v.",88%
same,inhibition at 100 mg/kg,"plasma DPIV activity; oral, read-out: in vivo DPIV-inhibition at tmax, p.o.",71%
same,IC50,[2],> 3000 µM
CC[C@H](C)[C@H](N)C(=O)N1CCSC1 [Isoleucyl thiazolidine fumarate],fasting blood glucose,[3],dramatic reduction and almost normalization
same,number of circulating half-lives equivalent to the 18 hours fasting period,Circulating half-life,~12 circulating half-lives
same,blood pressure,F344 rats,dose-dependently reduced
same,systolic blood pressure,[4],stabilization
CCC(C)C(N)C(=O)N1CCSC1 (centres unmarked) [isoleucyl thiazolidine],EC50,PepT1 [5],980 µM
same,circulating glucose concentration after intraduodenal (i.d.) glucose,"Wistar-rats; 0.1 mg per kg, versus untreated controls",more rapid reduction
same,effect on circulating glucose after i.v. administration of the same amount of glucose,Wistar-rats; inhibitor-treated,no comparable effect
same,"Imax, inward currents generated by the transport",PepT1 [6],25 ± 8 nA
same,suppression of the enzyme-catalyzed hydrolysis of GIP1-42 and GLP-17-36,[7],complete suppression
